pIC50: −log10 of the molar value.
Biological target: T1, recombinant human 11 β-HSD1 (Homo sapiens, UniProt P28845)
T1 construct: made in house; host or cells: E. coli
Assay: 11 β-HSD1 SPA Assay (Scintillation Proximity Assay)
Assay type: biochemical
Description: (§1) Inhibition of 11 βHSD1 by test compounds was assessed in vitro by a Scintillation Proximity Assay (SPA). The assay was carried out in a 384-well assay plate in a total well volume of 26 μl and contained a mixture of tritiated cortisone substrate (40 nM), NADPH cofactor (1 mM), inhibitor in serial dilutions ([…] to 10 μM), and purified E. coli-expressed recombinant human 11 βHSD1 (30-100 nM) in assay buffer (50 mM HEPES, 100 mM KCl, 5 mM NaCl, and 2 mM MgCl2, pH7.4). Following mixing, the plate was incubated for 2 hours at room temperature. Reactions were stopped by addition of 30 μl of protein A YSi SPA beads (10 mg/ml) that had been pre-incubated with glycyrrhetinic acid (1 mM) and a monoclonal cortisol antibody (3 μg/ml). The plate was then incubated overnight at room temperature prior to reading on a Microbeta counter. Percent inhibition of each compound was calculated based on the background and the maximal signals. Wells that contained substrate without compound or enzyme were used as the background signal, while the wells that contained substrate and enzyme without any compound were used as the maximal signal. The calculation of the IC50 values for the inhibitors was performed by Activity Base.
as §1, with “β-HSD1” for “βHSD1”

T1 sequence (P28845 whole entry): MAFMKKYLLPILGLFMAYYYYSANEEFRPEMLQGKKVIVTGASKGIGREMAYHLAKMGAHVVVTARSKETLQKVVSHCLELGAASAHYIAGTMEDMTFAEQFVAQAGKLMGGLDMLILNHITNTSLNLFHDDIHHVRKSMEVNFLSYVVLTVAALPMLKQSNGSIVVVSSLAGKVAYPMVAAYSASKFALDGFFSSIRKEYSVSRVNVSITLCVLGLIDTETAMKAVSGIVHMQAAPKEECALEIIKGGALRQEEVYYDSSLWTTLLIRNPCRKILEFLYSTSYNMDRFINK

COCCNC(=O)c1ccc(N2[C@@H]3CC[C@H]2C[C@@H](NC(=O)C(C)Oc2ccc(Cl)cc2)C3)nc1 (stereo partly drawn) [Example 67, 6-[3-endo-({2-[(4-chlorophenyl)oxy]propanoyl}amino)-8-azabicyclo[3.2.1]oct-8-yl]-N-[2-(methyloxy)ethyl]pyridine-3-carboxamide]
pIC50: > 5.00

CC(C)(Oc1c(Cl)cc(F)cc1C(F)(F)F)C(=O)N[C@H]1C[C@H]2CC[C@@H](C1)N2c1ccc(S(C)(=O)=O)cn1 [Example 179, 2-{[2-chloro-4-fluoro-6-(trifluoromethyl)phenyl]oxy}-2-methyl-N-{8-{5-(methylsulfonyl)pyridin-2-yl]-8-azabicyclo[3.2.1]oct-3-endo-yl}propanamide]
pIC50: > 6.70

CC(C)(Oc1ccc2ccccc2n1)C(=O)N[C@H]1C[C@H]2CC[C@@H](C1)N2c1ccc(C(N)=O)cn1 [Example 310, 6-(3-endo-{[2-methyl-2-(quinolin-2-yloxy)propanoyl]amino}-8-azabicyclo[3.2.1]oct-8-yl)pyridine-3-carboxamide]
pIC50: > 6.70

CC(C)(Oc1ccc(F)cc1C(F)(F)F)C(=O)N[C@H]1C[C@H]2CC[C@@H](C1)N2c1ccc(S(C)(=O)=O)cc1 [Example 250, 2-{[4-fluoro-2-(trifluoromethyl)phenyl]oxy}-2-methyl-N-{8-[4-(methylsulfonyl)phenyl]-8-azabicyclo[3.2.1]oct-3-endo-yl}propanamide]
pIC50: > 6.70

CC(C)(Oc1ccc(Cl)cc1Cl)C(=O)N[C@H]1C[C@H]2CC[C@@H](C1)N2c1ccc(C(=O)NC2CC2)nc1 [Example 163, N-cyclopropyl-5-[3-endo-({2-[(2,4-dichlorophenyl)oxy]-2-methylpropanoyl}amino)-8-azabicyclo[3.2.1]oct-8-yl]pyridine-2-carboxamide]
pIC50: > 6.70

CC(C)NC(=O)c1ccc(N2[C@@H]3CC[C@H]2C[C@@H](NC(=O)C(C)(C)Oc2ccc(F)c(F)c2)C3)nc1 [Example 85, 6-[3-endo-({2-[(3,4-difluorophenyl)oxy]-2-methylpropanoyl}amino)-8-azabicyclo[3.2.1]oct-8-yl]-N-(1-methylethyl)pyridine-3-carboxamide]
pIC50: > 5.70

CC(C)(Oc1ccc(Cl)cc1Cl)C(=O)N[C@H]1C[C@H]2CC[C@@H](C1)N2c1cc(C(=O)NCC(F)(F)F)ccn1 [Example 171, 2-[3-endo-({2-[(2,4-dichlorophenyl)oxy]-2-methylpropanoyl}amino)-8-azabicyclo[3.2.1]oct-8-yl]-N-(2,2,2-trifluoroethyl)pyridine-4-carboxamide]
pIC50: > 5.70

COCCOc1cc(Cl)ccc1OC(C)(C)C(=O)N[C@H]1C[C@H]2CC[C@@H](C1)N2c1ccc(C(=O)NCC(F)(F)F)cn1 [Example 352, 6-[3-endo-({2-[4-chloro-2-(2-methoxyethoxy)phenoxy]-2-methylpropanoyl}amino)-8-azabicyclo[3.2.1]oct-8-yl]-N-(2,2,2-trifluoroethyl)pyridine-3-carboxamide]
pIC50: > 6.70

CC(C)(Oc1ccc(Cl)cc1Cl)C(=O)N[C@H]1C[C@H]2CC[C@@H](C1)N2c1ccc(C(=O)NCC(F)(F)F)nc1 [Example 170, 5-[3-endo-({2-[(2,4-dichlorophenyl)oxy]-2-methylpropanoyl}amino)-8-azabicyclo[3.2.1]oct-8-yl]-N-(2,2,2-trifluoroethyl)pyridine-2-carboxamide]
pIC50: > 6.70

CC(C)(Oc1ccc(Cl)cc1C(F)(F)F)C(=O)N[C@H]1C[C@H]2CC[C@@H](C1)N2c1ccc(S(C)(=O)=O)cc1 [Example 284, 2-{[4-chloro-2-(trifluoromethyl)phenyl]oxy}-2-methyl-N-{8-[4-(methylsulfonyl)phenyl]-8-azabicyclo[3.2.1]oct-3-endo-yl}propanamide]
pIC50: > 6.70

CC(C)(Oc1ccccc1S(C)(=O)=O)C(=O)N[C@H]1C[C@H]2CC[C@@H](C1)N2c1ccc(C(=O)NCC(F)(F)F)cn1 [Example 300, 6-{3-endo-[(2-methyl-2-{[2-(methylsulfonyl)phenyl]oxy}-propanoyl)amino]-8-azabicyclo[3.2.1]oct-8-yl}-N-(2,2,2-trifluoroethyl)pyridine-3-carboxamide]
pIC50: > 5.70

CC(C)(Oc1ccc(F)c(Cl)c1)C(=O)N[C@H]1C[C@H]2CC[C@@H](C1)N2c1ccc(S(C)(=O)=O)cn1 [Example 226, 2-[(3-chloro-4-fluorophenyl)oxy]-2-methyl-N-{8-[5-(methylsulfonyl)pyridin-2-yl]-8-azabicyclo[3.2.1]oct-3-endo-yl}propanamide]
pIC50: > 6.70

CC(C)(Oc1ccc(Cl)c(Cl)c1)C(=O)N[C@H]1C[C@H]2CC[C@@H](C1)N2c1ccc(S(C)(=O)=O)cn1 [Example 204, 2-[(3,4-dichlorophenyl)oxy]-2-methyl-N-{8-[5-(methylsulfonyl)pyridin-2-yl]-8-azabicyclo[3.2.1]oct-3-endo-yl}propanamide]
pIC50: > 6.70

CC(C)(Oc1ccc(Cl)cc1Cl)C(=O)N[C@H]1C[C@H]2CC[C@@H](C1)N2c1ccc(C(=O)O)cn1 [Example 287, 6-[3-endo-({2-[(2,4-dichlorophenyl)oxy]-2-methylpropanoyl}amino)-8-azabicyclo[3.2.1]oct-8-yl]pyridine-3-carboxylic acid]
pIC50: > 6.70

CC(C)(Oc1ccc(Cl)cc1Cl)C(=O)N[C@H]1C[C@H]2CC[C@@H](C1)N2Cc1ccc(C(N)=O)cn1 [Example 323, 6-{[3-endo-({2-[(2,4-dichlorophenyl)oxy]-2-methylpropanoyl}amino)-8-azabicyclo[3.2.1]oct-8-yl]methyl}pyridine-3-carboxamide]
pIC50: > 5.70

C[C@H](NC(=O)c1ccc(N2C3CCC2CC(NC(=O)C(C)(C)Oc2ccc(Cl)cc2C(F)(F)F)C3)nc1)C(F)(F)F (stereo partly drawn) [Example 416, 6-[3-endo-({2-[4-chloro-2-(trifluoromethyl)phenoxy]-2-methylpropanoyl}amino)-8-azabicyclo[3.2.1]oct-8-yl]-N-[(2S)-1,1,1-trifluoropropan-2-yl]pyridine-3-carboxamide]
pIC50: > 6.70

CC(C)(Oc1ncc(Cl)cc1Cl)C(=O)N[C@H]1C[C@H]2CC[C@@H](C1)N2c1ccc(C(=O)NCC(F)F)cn1 [Example 408, 6-(3-endo-(2-(3,5-dichloropyridin-2-yloxy)-2-methylpropanamido)-8-azabicyclo[3.2.1]octan-8-yl)-N-(2,2-difluoroethyl)nicotinamide]
pIC50: > 6.70

CC(C)(Oc1ncc(C(F)(F)F)cc1Cl)C(=O)N[C@H]1C[C@H]2CC[C@@H](C1)N2c1ccc(S(N)(=O)=O)cn1 [Example 246, N-{8-[5-(aminosulfonyl)pyridin-2-yl]-8-azabicyclo[3.2.1]oct-3-endo-yl}-2-{[3-chloro-5-(trifluoromethyl)pyridin-2-yl]oxy}-2-methylpropanamide]
pIC50: > 5.70

CC(C)(Oc1ccc(Cl)cc1Cl)C(=O)N[C@H]1C[C@H]2CC[C@@H](C1)N2c1ccc(N)cn1 [Example 88, N-[8-(5-aminopyridin-2-yl)-8-azabicyclo[3.2.1]oct-3-endo-yl]-2-[(2,4-dichlorophenyl)oxy]-2-methylpropanamide]
pIC50: > 6.70

CC(C)NC(=O)c1ccc(N2[C@@H]3CC[C@H]2C[C@@H](NC(=O)C(C)(C)Oc2ccc(Cl)cc2C(F)(F)F)C3)nc1 [Example 370, 6-[3-endo-({2-[4-chloro-2-(trifluoromethyl)phenoxy]-2-methylpropanoyl}amino)-8-azabicyclo[3.2.1]oct-8-yl]-N-(propan-2-yl)pyridine-3-carboxamide]
pIC50: > 6.70

CC(C)(Oc1cc(CC(=O)O)c(Cl)cc1Cl)C(=O)N[C@H]1C[C@H]2CC[C@@H](C1)N2c1ccc(C(=O)NCC(F)(F)F)cn1 [Example 444, [2,4-dichloro-5-({2-methyl-1-oxo-1-[(8-{5-[(2,2,2-trifluoroethyl)carbamoyl]pyridin-2-yl}-8-azabicyclo[3.2.1]oct-3-endo-yl)amino]propan-2-yl}oxy)phenyl]acetic acid]
pIC50: > 6.70

CC(C)(Oc1ccc(F)c(Cl)c1)C(=O)N[C@H]1C[C@H]2CC[C@@H](C1)N2c1ccc(C(=O)NCC(F)(F)F)cn1 [Example 93, 6-[3-endo-({2-[(3-chloro-4-fluorophenyl)oxy]-2-methylpropanoyl}amino)-8-azabicyclo[3.2.1]oct-8-yl]-N-(2,2,2-trifluoroethyl)pyridine-3-carboxamide]
pIC50: > 6.70

CC(C)(Oc1ccc(Cl)cc1-c1ccccc1)C(=O)N[C@H]1C[C@H]2CC[C@@H](C1)N2c1ccc(C(N)=O)cn1 [Example 322, 6-[3-endo-({2-[(5-chlorobiphenyl-2-yl)oxy]-2-methylpropanoyl}amino)-8-azabicyclo[3.2.1]oct-8-yl]pyridine-3-carboxamide]
pIC50: > 6.70

— US8163771B2, “11 β-HSD1 modulators” (Exelixis, Inc., priority 2008, dated 2012)
